From US12508280B2, “Formulations for improving gut health” (DSM IP ASSETS B.V., priority 2018, dated 2025) come the findings set out here.

For experiment [1], the system named is Co-cultures of Caco-2 and HT29-MTX-E12 cells. The experiment can be described thus: Barrier integrity, leaky gut model, basolateral stressor 5% EtOH. As to conditions: 0.2× dose, vs corresponding control; for Lucifer yellow, basolateral induction of leaky gut cellular model: 48 h fermentation samples; for TEER, basolateral induction of leaky gut cellular model: 48 h minus 0 h fermentation samples. Type of experiment: cell-based.
Protocol: (§1) Since ethanol is known to have antimicrobial effects, two blanks for each type of stock solution were included. As a source of the microbial community, a freshly prepared fecal suspension from the selected donor was added to the reactors. […] All tests, except the blanks, were performed in single repetition, resulting in 40 independent incubations, as specified in Table 1. Incubation conditions of the pre-screening experiment and the final experiment were 48 h at 37° C., under shaking (90 rpm) and anaerobic conditions. […] Effluent samples were collected from each fermentation flask before (0 h fermentation) and after fermentation (48 h fermentation), sterilized by filtering through 0.22 μm filters and used for short chain fatty acids (SCFA), quantification of immunological biomarkers and in vitro analysis in cell culture systems.
(§2) Co-cultures of Caco-2 and HT29-MTX-E12 cells were used to assess the protective effect of the supernatants before (0 h) and after fermentation (48 h) for both sets of in vitro experiments above.
(§3) CaCo-2 ECACC 86010202 and HT29-MTX-E12 ECACC 12040401 cells (both from European Collection of Cell Cultures, Salisbury, UK) were both cultured at 37° C., in atmosphere of 5% CO2 in DMEM medium supplemented with 4.5 g/L D-Glucose, 4 mM L-Glutamine, 1 mM Sodium Pyruvate, 1% MEM Non-Essential Amino Acids, 50 μg/mL Gentamicin (Life Technologies Europe B.V., Zug, Switzerland) and 10% heat-inactivated FBS (Sigma-Aldrich, Buchs, Switzerland). Sub-confluent cells were trypsinized using 0.25% Trypsin/EDTA (Life Technologies Europe B.V., Zug, Switzerland) and passaged at a ratio of 1:5-1:10 twice a week. Cells between passages 55 and 85 were used for this study.
(§4) Cells were seeded at a density of 20000 cells/well in a 7:3 ratio (Caco-2:HT29-MTX-E12) in Corning HTS Transwell-24 system PET membranes, 0.4 μM pore size, cell growth area 0.33 cm2/well (Corning BV, Amsterdam, Netherlands) and cultured as described above. Media was changed every second to third day.
For both sets of in vitro experiments, the integrity of cell monolayers after the stressor test was evaluated by both TEER values and by measuring the transport of Lucifer yellow from apical to basolateral compartments (Leaky gut model). […] The inserts were rinsed twice with HBSS using a reservoir tray, 100 μl HBSS were then added to the apical site of the inserts and subsequently moved to new wells with fresh HBSS and allowed to equilibrate at 37° C. for 60 min in the incubator followed by TEER measurement to obtain baseline resistance readings. […]

A further experiment concerns HT29 cells. Nature of the experiment: HT29 cell culture, quantification of immunological biomarkers. The class given is cell-based. As to conditions: effluent from 24 h fermentation, vs corresponding control.
Experiment [2] has as its system fecal suspension from the selected donor. The experiment can be described thus: Intestinal batch fermentation, SCFA production (first set). Conditions: after 48 h fermentation, vs corresponding control. Type of experiment: cell-based, human. In a few lines: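 Test ingredients were added to modified nutritional medium inoculated with fresh donor fecal suspension. Incubation ran 48 h at 37° C, 90 rpm, anaerobic, with ethanol blanks and single repeats. SCFA were sampled at 0, 6, 24 and 48 h, diethyl ether-extracted and quantified by GC-FID against a 2-methyl hexanoic acid internal standard; molar sums were taken as unbranched, branched and total SCFA.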

In experiment [3] the test system is Co-cultures of Caco-2 and HT29-MTX-E12 cells. The experiment can be described thus: Barrier integrity, leaky gut model, apical stressor Rhamnolipids. The class given is cell-based. Conditions: vs corresponding control; for Lucifer yellow, apical induction of leaky gut cellular model: 48 h fermentation samples; for TEER, apical induction of leaky gut cellular model: 48 h minus 0 h fermentation samples.
Protocol: as §1, §2, §3, §4
For both sets of in vitro experiments, the integrity of cell monolayers after the stressor test was evaluated by both TEER values and by measuring the transport of Lucifer yellow from apical to basolateral compartments (Leaky gut model). A prewarmed HBSS transport buffer composed of Hank's Balanced Salt Solution pH 7.4 with Ca2+ and Mg2+, containing 5.5 mM D-(+)-glucose, Sodium Bicarbonate, and supplemented with 4 mM L-glutamine, 20 mM HEPES (Life Technologies Europe B.V., Zug, Switzerland) was used for all permeability experiments. The inserts were rinsed twice with HBSS using a reservoir tray, 100 μl HBSS were then added to the apical site of the inserts and subsequently moved to new wells with fresh HBSS and allowed to equilibrate at 37° C. for 60 min in the incubator followed by TEER measurement to obtain baseline resistance readings.
Lucifer Yellow CH dilithium salt (Sigma-Aldrich, Buchs, Switzerland) was dissolved in HBSS at a final concentration of 100 μg/ml. Basolateral stressor EtOH (Merck, KgaA, Darmstadt, Germany) was diluted to 5% in HBSS. Apical Stressor Rhamnolipids R90 (AGAE Technologies, Corvallis, USA) was dissolved in HBSS containing Lucifer Yellow at a final concentration of 350 μg/ml. All solutions were prepared freshly each time.
The HBSS transport buffer from the basolateral chamber was aspirated first, then the HBSS from the apical chamber and replaced with Lucifer yellow solution. For the apical stressor test, Lucifer yellow solution containing 350 μg/ml Rhamnolipids or Lucifer yellow solution without stressor for the control wells was loaded into the apical compartment, blank HBSS was subsequently added to the basolateral chamber.

Experiment [4] has as its system fecal suspension from the selected donor. Nature of the experiment: Gas production in closed colon incubations (first set). As to conditions: after 48 h fermentation, vs corresponding control. The class given is cell-based, human. On the procedure: The colon incubations were performed in closed incubation systems. This allowed us to evaluate the accumulation of gasses in the headspace, which can be measured with a pressure meter. Gas production is a measure of microbial activity, and thus of the speed of fermentation of the potentially prebiotic substrates. It can be used as an indication for bloating and digestive wellbeing upon prebiotic consumption.
Since ethanol is known to have antimicrobial effects, two blanks for each type of stock solution were included. As a source of the microbial community, a freshly prepared fecal suspension from the selected donor was added to the reactors. […] All tests, except the blanks, were performed in single repetition, resulting in 40 independent incubations, as specified in Table 1. Incubation conditions of the pre-screening experiment and the final experiment were 48 h at 37° C., under shaking (90 rpm) and anaerobic conditions. DNA were extracted from effluent samples collected from each fermentation flask before (0 h fermentation) and after fermentation (24 h fermentation) and use for microbiome composition analysis by Shotgun sequencing. Effluent samples were collected from each fermentation flask before (0 h fermentation) and after fermentation (48 h fermentation), sterilized by filtering through 0.22 μm filters and used for short chain fatty acids (SCFA), quantification of immunological biomarkers and in vitro analysis in cell culture systems.
For both sets of in vitro experiments, colon incubations were performed in closed incubation systems as described above. This allowed to evaluate the accumulation of gasses in the headspace, which can be measured with a pressure meter. Gas production is a measure of microbial activity, and thus of the speed of fermentation of the potentially prebiotic substrates

For experiment [5], the system named is Co-cultures of Caco-2 and HT29-MTX-E12 cells. The experiment can be described thus: Barrier integrity (TEER), healthy gut model. The class given is cell-based. As to conditions: 48 h minus 0 h fermentation samples, vs corresponding control.
Protocol: as §2, §3, §4
For both sets of in vitro experiments, after cells being 13 days in culture, initial transepithelial electrical resistance (TEER) readings were obtained using an EVOM2 Voltohmmeter (EVOM, World Precision Instruments, Berlin) equipped with STX100 Electrodes. TEER values correlate with the tightness of the confluent monolayer (Srinivasan et al. 2015).
The background TEER (insert) was subtracted from total TEER (cell monolayer plus insert) to yield the monolayer resistance and then normalized to surface area by multiplying with the area of the insert (Srinivasan et al. 2015). The integrity of the monolayer was determined at basal level by measuring TEER. A TEER of 300 Ωcm2 was regarded as a tight monolayer (see results section). Afterwards, the cells were treated with sterile filtered fermentation supernatants or fermentation medium as a control (diluted 1:20 in growth media). After 24 h incubation the resistance across each cell monolayer was measured again and the percentage change in TEER compared to initial TEER for each insert was calculated to represent a healthy gut model. All TEER measurements were done by placing the plates containing the inserts on a 37° C. warming plate and were performed in the same duration.

Take `Cc1cc2nc3c(=O)[nH]c(=O)nc-3n(C[C@H](O)[C@H](O)[C@H](O)CO)c2cc1C` [Vitamin B2, riboflavin]: in experiment [1], the “Lucifer yellow, basolateral induction of leaky gut cellular model” value is reported as “decrease Lucifer yellow” and the “TEER, basolateral induction of leaky gut cellular model” value is “increase TEER”. Also, in the experiment with HT29 cells (1× dose), the “GROa-CXCL1 production by HT29 cells” value was “increase GROa-CXCL1 production” and the “IL-8 production by HT29 cells” value is on record as “increase IL-8 production”. Also, in the experiment with HT29 cells (5× dose), the “GROa-CXCL1 production by HT29 cells” value was “increase GROa-CXCL1 production” and the “IL-8 production by HT29 cells” value is listed as “increase IL-8 production”. For the same molecule, the butyrate production result in experiment [2] (5× dose) is “increase butyrate production”. Moreover, in experiment [3] (0.2× dose), the “Lucifer yellow, apical induction of leaky gut cellular model” value was “decrease Lucifer yellow” and the “TEER, apical induction of leaky gut cellular model” value is given as “increase TEER”.
On to Vitamin E, for which the “Lucifer yellow, basolateral induction of leaky gut cellular model” value in experiment [1] is given as “decrease Lucifer yellow”. In experiment [1], the “TEER, basolateral induction of leaky gut cellular model” value is “increase TEER”. Further, the “IL-8 production by HT29 cells” value in the experiment with HT29 cells (0.2× dose), in the experiment with HT29 cells (1× dose) and in the experiment on HT29 cells (5× dose) was “increase IL-8 production” throughout. Also, the “MIP3A-CCL20 production by HT29 cells” value with HT29 cells (0.2× dose), with HT29 cells (1× dose) and in the experiment on HT29 cells (5× dose) was “increase MIP3A-CCL20 production” each time. In the experiment on HT29 cells (5× dose), the “GROa-CXCL1 production by HT29 cells” value is listed as “increase GROa-CXCL1 production”. Also, the acetate production entry in experiment [2] (1× dose) and in experiment [2] (5× dose) was “increase acetate production” in each case. Moreover, in experiment [2] (1× dose), the propionate production entry is listed as “increase propionate production”. Besides, in experiment [2] (1× dose), the “total SCFAs production” value was “increase total SCFAs production”. In addition, the “TEER, apical induction of leaky gut cellular model” value in experiment [3] (0.2× dose), in experiment [3] (1× dose) and in experiment [3] (5× dose) was “increase TEER” in each case. In addition, the “Lucifer yellow, apical induction of leaky gut cellular model” value in experiment [3] (1× dose) and in experiment [3] (5× dose) was “decrease Lucifer yellow” in each case. Moreover, the gas production entry in experiment [4] (1× dose) and in experiment [4] (5× dose) was “reduced gas production” in each case. The “TEER, healthy gut cellular model” value in experiment [5] (1× dose) and in experiment [5] (5× dose) was “increase TEER” each time.
